Some test systems named below: ACHN renal; DU-145 prostate; HOP-92 NSCLC; M14 melanoma; MOLT-4 leukemia; NCI/ADR-RES ovarian; SF-295 CNS; SN12C renal; UACC-62 melanoma; UO-31 renal.
Test in all cases: NCI anticancer screen, dose series, 48 h

SMILES strings stand for the structures. Several values for one entry are separate records, joined by “and”; a condition that tells them apart may be missing. Equal entries are not always repeated.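 Tested at 5 concentrations; 48 h exposure; 96-well plates; endpoints linearly interpolated, else capped at highest concentration. Here, GI50 denotes the concentration required for 50% inhibition of growth. TGI: total growth inhibition.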 Where only a bound is given, the exact number is not on record here.

The record followed here is PubChem BioAssay (NCI).

As for `CCCCCCCCCCCCOC1C(C(CC(=O)N2CCN(Cc3ccc4c(c3)OCO4)CC2)NS(=O)(=O)c2cc(Cl)cc(Cl)c2)OC2OC(C)(C)OC21` (configuration not stated), the GI50 was 33.8 µM in the experiment with ACHN renal; 25.5 µM in the experiment with DU-145 prostate; 15.1 µM with HOP-92 NSCLC; 61.1 µM in the experiment with M14 melanoma; 5.03 µM in the experiment with MOLT-4 leukemia; over 100 µM in the experiment on NCI/ADR-RES ovarian. Moreover, the GI50 was 26.3 µM with SF-295 CNS, 15.6 µM with SN12C renal, over 63.3 µM with UACC-62 melanoma and 32.9 µM in the experiment with UO-31 renal. The TGI was over 100 µM with ACHN renal; over 100 µM in the experiment on DU-145 prostate; over 62.8 µM in the experiment on HOP-92 NSCLC; over 100 µM in the experiment on M14 melanoma; over 100 µM in the experiment on MOLT-4 leukemia; over 100 µM in the experiment with NCI/ADR-RES ovarian. The TGI with SF-295 CNS is over 100 µM; in the experiment with SN12C renal, 43.2 µM; in the experiment on UACC-62 melanoma, over 100 µM; in the experiment on UO-31 renal, over 100 µM.

On to `Nc1ncc(C2[C@H](CNC(=O)c3cc(Br)c[nH]3)C(CNC(=O)c3cc(Br)c[nH]3)[C@@H]2c2cnc(N)[nH]2)[nH]1` (some centres not stated), for which the GI50 is over 50 µM in the experiment with ACHN renal; 0.329 µM with DU-145 prostate; 43.7 µM with HOP-92 NSCLC; over 50 µM with M14 melanoma; 48.4 µM with MOLT-4 leukemia; over 50 µM in the experiment with NCI/ADR-RES ovarian. Besides, the GI50 in the experiment with SF-295 CNS was over 50 µM; in the experiment on SN12C renal it was 21.4 µM; with UACC-62 melanoma it was over 50 µM; in the experiment with UO-31 renal, over 50 µM. For the same compound, the TGI in the experiment with ACHN renal, in the experiment on DU-145 prostate, in the experiment on HOP-92 NSCLC, in the experiment on M14 melanoma, in the experiment on MOLT-4 leukemia and in the experiment with NCI/ADR-RES ovarian was over 50 µM throughout. For the same compound, the TGI in the experiment on SF-295 CNS, in the experiment with SN12C renal, with UACC-62 melanoma and in the experiment on UO-31 renal was over 50 µM each time.

Consider `O=NN(CCCl)C(=O)NC1CCCCC1`, for which the GI50 in the experiment on ACHN renal was 23.2 µM and 82.7 µM; in the experiment with HOP-92 NSCLC, 23.6 µM and 42.6 µM; in the experiment with M14 melanoma, 16.8 µM and 56.8 µM; in the experiment with MOLT-4 leukemia, 20.7 µM and 36.1 µM; in the experiment on SF-295 CNS it was 91.7 µM; in the experiment with SN12C renal, 20.9 µM and 92.8 µM. For the same compound, the GI50 in the experiment on UACC-62 melanoma was 7.68 µM; in the experiment with UO-31 renal, 22 µM and 52.9 µM. Besides, the TGI with ACHN renal was 57.6 µM and 153 µM and 182 µM; in the experiment on DU-145 prostate, 132 µM; in the experiment on HOP-92 NSCLC, 48.7 µM and 99.1 µM and 74.7 µM; in the experiment with M14 melanoma it was 33 µM and 127 µM and 82.8 µM; in the experiment with MOLT-4 leukemia it was 38.4 µM and 99.1 µM and 80.3 µM; in the experiment with NCI/ADR-RES ovarian, 186 µM. For the same compound, the TGI in the experiment on SF-295 CNS is 118 µM; with SN12C renal it was 47.8 µM and 123 µM and 214 µM; in the experiment with UACC-62 melanoma, 24.2 µM and 72 µM and 77.3 µM; in the experiment on UO-31 renal it was 54.6 µM and 168 µM and 206 µM.

Take `CCN(CC)CCOc1ccc2c(C)c(C(=O)OC)oc2c1C(=O)/C=C/c1ccc(OC)cc1`: the GI50 in the experiment on ACHN renal is 1.85 µM; with DU-145 prostate it was 18.5 µM; in the experiment on HOP-92 NSCLC it was 0.551 µM; with M14 melanoma it was 25.4 µM; in the experiment with MOLT-4 leukemia it was 1.54 µM; in the experiment on NCI/ADR-RES ovarian, 2.58 µM. Besides, the GI50 with SF-295 CNS was 6.76 µM; with SN12C renal, 0.166 µM; with UACC-62 melanoma it was 2.24 µM; in the experiment on UO-31 renal, 1.45 µM. Besides, the TGI in the experiment with ACHN renal was 5.25 µM; in the experiment on DU-145 prostate, 34.7 µM; in the experiment on HOP-92 NSCLC, 2.77 µM; in the experiment on M14 melanoma, over 48.7 µM; in the experiment with MOLT-4 leukemia it was 6.58 µM; with NCI/ADR-RES ovarian it was 6.53 µM. Also, the TGI with SF-295 CNS was 23.7 µM; in the experiment with SN12C renal, 2.66 µM; in the experiment with UACC-62 melanoma, 7.75 µM.

For the compound `C[C@]12CCC3=NCCN3C1=CC[C@@H]1[C@@H]2CC[C@@]2(C)[C@H]1CC[C@]2(C)O`, the TGI in the experiment on ACHN renal, with DU-145 prostate, in the experiment with HOP-92 NSCLC, in the experiment with M14 melanoma, in the experiment with MOLT-4 leukemia and in the experiment on NCI/ADR-RES ovarian was over 100 µM in each case. Besides, the TGI with SF-295 CNS is 42.6 µM; in the experiment with SN12C renal, over 100 µM; with UACC-62 melanoma it was 76.4 µM; in the experiment on UO-31 renal, over 100 µM.

As for `C=CCN=C(N/N=C/c1ccc([N+](=O)[O-])o1)NS(=O)(=O)c1cc(C(=O)Nc2ccccc2)c(Cl)cc1SCC(N)=O`, the GI50 with ACHN renal is over 100 µM; in the experiment with DU-145 prostate, 22.4 µM; in the experiment on HOP-92 NSCLC, 13.6 µM; with M14 melanoma, 69.8 µM; with MOLT-4 leukemia, 13.4 µM; with NCI/ADR-RES ovarian, over 100 µM. Also, the GI50 with SF-295 CNS was over 100 µM; in the experiment on SN12C renal, 29 µM; in the experiment on UACC-62 melanoma it was 17.3 µM; in the experiment with UO-31 renal, over 100 µM. Also, the TGI with ACHN renal is over 100 µM; in the experiment on DU-145 prostate it was 71.9 µM; in the experiment on HOP-92 NSCLC, 52.2 µM; in the experiment with M14 melanoma it was over 100 µM; with MOLT-4 leukemia it was 43.9 µM; in the experiment with NCI/ADR-RES ovarian, over 100 µM. For the same compound, the TGI is over 100 µM in the experiment on SF-295 CNS, over 100 µM in the experiment on SN12C renal, 33.3 µM with UACC-62 melanoma and over 100 µM in the experiment with UO-31 renal.

Consider `CN(C)c1ccc(C2CC(C)(O)Oc3cc4c(cc32)OCO4)cc1` (configuration not stated), for which the TGI in the experiment on ACHN renal, in the experiment on DU-145 prostate, with HOP-92 NSCLC, with M14 melanoma, with MOLT-4 leukemia and in the experiment on NCI/ADR-RES ovarian was over 100 µM in each case. Further, the TGI in the experiment on SF-295 CNS was over 100 µM; in the experiment with SN12C renal, over 100 µM; in the experiment with UACC-62 melanoma, over 100 µM; with UO-31 renal it was 93.1 µM.

Take `COc1ccc(/C=C\c2cc(OC)c(OC)c(OC)c2)c(NS(=O)(=O)c2ccc(C(C)(C)C)cc2)c1O`: the GI50 in the experiment with ACHN renal was 0.452 µM; in the experiment on DU-145 prostate, 0.395 µM; in the experiment with HOP-92 NSCLC it was 0.189 µM; in the experiment on M14 melanoma it was 0.191 µM; with MOLT-4 leukemia, 0.202 µM; in the experiment with NCI/ADR-RES ovarian, 0.309 µM. Also, the GI50 in the experiment on SF-295 CNS was 1.37 µM; in the experiment on SN12C renal, 0.618 µM; in the experiment on UACC-62 melanoma it was 0.113 µM; in the experiment with UO-31 renal it was 0.982 µM. The TGI came out at 23.5 µM in the experiment with ACHN renal; 12.5 µM with DU-145 prostate; 5.92 µM in the experiment with HOP-92 NSCLC; 13.5 µM in the experiment with M14 melanoma; 3.94 µM with MOLT-4 leukemia; 19.6 µM in the experiment on NCI/ADR-RES ovarian. Moreover, the TGI in the experiment on SF-295 CNS came out at 15 µM; with SN12C renal, 21.4 µM; with UACC-62 melanoma it was 17.5 µM; with UO-31 renal, 21.6 µM.
